Assay results: patent publication US10028960B2, “Pyrimidine compounds as JAK kinase inhibitors” (THERAVANCE BIOPHARMA R&D IP, LLC, priority 2016, dated 2018)
Where two headings read alike, the source gives them in different places.

Experiments:
[1] = Dynamic moisture sorption assessment; type: physicochemical; details: for weight gain: humidity range of 5% to 90% relative humidity, 25° C.
Procedure: Dynamic moisture sorption (DMS) measurement was performed using a VTI atmospheric microbalance, SGA-100 system (VTI Corp., Hialeah, Fla. 33016). A weighed sample was used and the humidity was lowest possible value (close to 0% RH) at the start of the analysis. The DMS analysis consisted of an initial drying step (0% RH) for 120 minutes, followed by two cycles of sorption and desorption with a scan rate of 5% RH/step over the humidity range of 5% RH to 90% RH. The DMS run was performed isothermally at 25° C.

[2] = Determination of absorption in cannulated rats; type: in vivo, Sprague Dawley rats; details: rat; for absorption at the portal vein (Fa %): oral; for bioavailability: Sprague Dawley, plasma (jugular vein), oral vs IV, read-out: oral bioavailability (F %)
Procedure: Oral bioavailability (F %), fraction absorbed (Fa %) and fraction escaping hepatic clearance (Fh %) were determined in Sprague Dawley rats from the following two studies:
(1) Pharmacokinetics in rats following an IV dose of test compound: Following IV dosing, plasma samples were typically collected from 0-6 hr. Drug levels were determined using an LC-MS-MS method. The resulting drug levels were used to compute the IV pharmacokinetic parameters: AUC IV and Dose IV.
(2) Rats that have been cannulated in their portal vein (PV) and also in their jugular vein (JV) were dosed orally with test compound. Following oral dosing, plasma samples were typically collected from 0-6 hr from both the portal vein and the jugular vein. Drug levels were determined using an LC-MS-MS method. The resulting drug levels were used to compute the following pharmacokinetic parameters: AUC PO PV, AUC PO JV, and Dose PO.
Using data derived from the above studies, the oral bioavailability F %, and the quantities Fa % and Fh % were calculated from the following formulas: F %=(AUC PO JV/AUC IV)*(Dose IV/Dose PO)*100 Fa %=(AUC PO PV/AUC IV)*(Dose IV/Dose PO)*100 Fh %=AUC PO JV/AUC PO PV
AUC PO JV=Area under the curve following oral dose and plasma collected from the jugular vein
AUC PO PV=Area under the curve following oral dose and plasma collected from the portal vein
AUC IV=Area under the curve following an intravenous dose
Dose IV=Intravenous Dose in mg/kg
Dose PO=Oral Dose in mg/kg

Tyk2 = Tyk2 (Homo sapiens (Human), UniProt P29597); test: LanthaScreen JAK biochemical assay, Tyk2; details: read-out: Tyk 2 (pKi) (converted)
Procedure: (§1) A panel of four LanthaScreen JAK biochemical assays (JAK1, 2, 3 and Tyk2) were carried in a common kinase reaction buffer (50 mM HEPES, pH 7.5, 0.01% Brij-35, 10 mM MgCl2, and 1 mM EGTA). Recombinant GST-tagged JAK enzymes and a GFP-tagged STAT1 peptide substrate were obtained from Life Technologies.

JAK1 = JAK1 (Homo sapiens (Human), UniProt P23458); test: LanthaScreen JAK biochemical assay, JAK1; details: for Ki: read-out: JAK 1 (pKi) (converted)
Procedure: as §1

[3] = tested on: IL-13 induced STAT6 phosphorylation in HT-29 human colorectal adenocarcinoma cells; test: Cellular JAK potency assay: inhibition of IL-13 induced STAT6 phosphorylation; type: cell-based; details: Homo sapiens; IL-13 induced STAT6 phosphorylation, HT-29 cells; read-out: HT-29 (pIC50) (converted)
JAK2 = JAK2 (Homo sapiens (Human), UniProt O60674); test: LanthaScreen JAK biochemical assay, JAK2
Procedure: as §1

JAK3 = JAK3 (Homo sapiens (Human), UniProt P52333); test: LanthaScreen JAK biochemical assay, JAK3
Procedure: as §1

[4] = tested on: oxazolone-induced colitis; test: Mouse model of oxazolone-induced colitis; type: in vivo, BALB/C mice; details: mouse, PO, 1, 3, and/or 10 mg/kg BID
Procedure: Oxazolone-induced colitis is an experimental model that has a histological resemblance to human ulcerative colitis (Heller et al. […], 2002, 17, 629-638). Adult BALB/C mice from Harlan were used in the assay. On day 1, animals were lightly anesthetized with isoflurane and the hairs between the shoulder were carefully removed before oxazolone (4%, 150 μL, 4:1 acetone: olive oil formulation) or vehicle solution was slowly applied for skin sensitization. Seven days after skin sensitization, the mice were fasted overnight, anesthetized with isoflurane inhalation, and a 1 mL syringe equipped with a 3.5-F catheter, filled with oxazolone solution, was inserted carefully about 4 cm into the colon of the mouse. Following insertion, 50 μL of the oxazolone solution (1%, 1:1 ethanol:water formulation) was injected very slowly (over 30 sec using an injection pump) into the colon. The catheter was removed and the mice were held vertically (head down) for 2 min to ensure that the entire oxazolone solution remained inside the colon. Drug treatment (PO, BID or TID) or vehicle was initiated a day prior to the oxazolone intrarectal (IR) challenge. Two-day post oxazolone intrarectal challenge, the Disease Activity Index (DAI) was assessed by treatment-blinded experimenters for each mouse according to the criteria score: stool consistency score (0, normal; 2, loose; 4, diarrhea), gross bleeding score (0, absence; 2, blood tinged; 4, presence), and weight loss score (0, none; 1, 1%-5%; 2, 5%-10%; 3, 10%-20%; 4, more than 20%); DAI=average of (stool consistency score+gross bleeding score+weight loss score).
Selected compounds of the invention were tested in the assay. Efficacy in the model is evidenced by a decrease in DAI score as compared with the score from vehicle treated animals.

[5] = tested on: mouse splenic NK, B and T cells; details: in vivo, po
Procedure: Depletion of mouse splenic cells is an experimental model of immunosuppression (Kudlacz et al., Am. J. of Transplantation, 2004, 4, 51-57). The compound of Example 2 was assessed in the mouse splenic cell model following the same treatment paradigm as that used in the oxazolone-induced colitis model (Assay 8).
The compound (1, 10 and 100 mg/kg, BID) and tofacitinib (30 and 60 mg/kg, BID) as a positive control were dosed orally for three days to naïve mice. Spleens were harvested 1 h post last dose and crushed immediately for cell subtype staining. Prior to fixation, fluorophore-labelled antibodies for CD19 (FITC; B cells), CD3e (PE; pan T cells) and DX5 (APC; NK cells) were incubated with splenocyte samples from each animal to allow for simultaneous, multiple subtype % analysis on the flow cytometer. The number of total spleen cells for each animal was measured by Scepter™ 2.0 Handheld Automated Cell Counter.
The absolute number of lymphocyte subtype population (e.g., splenic B, T and NK cells) was calculated from the percentage of each subtype times total spleen cells for each animal. A one way ANOVA, with Dunnett's post hoc test, was used to compare the splenic lymphocytes number of the vehicle and test compound groups. The a level was set at p<0.05. Data were presented as the mean±SEM for each group.

[6] = read-out: JAK 3 (pKi) (converted)

Tyk2, sequence (P29597 whole entry): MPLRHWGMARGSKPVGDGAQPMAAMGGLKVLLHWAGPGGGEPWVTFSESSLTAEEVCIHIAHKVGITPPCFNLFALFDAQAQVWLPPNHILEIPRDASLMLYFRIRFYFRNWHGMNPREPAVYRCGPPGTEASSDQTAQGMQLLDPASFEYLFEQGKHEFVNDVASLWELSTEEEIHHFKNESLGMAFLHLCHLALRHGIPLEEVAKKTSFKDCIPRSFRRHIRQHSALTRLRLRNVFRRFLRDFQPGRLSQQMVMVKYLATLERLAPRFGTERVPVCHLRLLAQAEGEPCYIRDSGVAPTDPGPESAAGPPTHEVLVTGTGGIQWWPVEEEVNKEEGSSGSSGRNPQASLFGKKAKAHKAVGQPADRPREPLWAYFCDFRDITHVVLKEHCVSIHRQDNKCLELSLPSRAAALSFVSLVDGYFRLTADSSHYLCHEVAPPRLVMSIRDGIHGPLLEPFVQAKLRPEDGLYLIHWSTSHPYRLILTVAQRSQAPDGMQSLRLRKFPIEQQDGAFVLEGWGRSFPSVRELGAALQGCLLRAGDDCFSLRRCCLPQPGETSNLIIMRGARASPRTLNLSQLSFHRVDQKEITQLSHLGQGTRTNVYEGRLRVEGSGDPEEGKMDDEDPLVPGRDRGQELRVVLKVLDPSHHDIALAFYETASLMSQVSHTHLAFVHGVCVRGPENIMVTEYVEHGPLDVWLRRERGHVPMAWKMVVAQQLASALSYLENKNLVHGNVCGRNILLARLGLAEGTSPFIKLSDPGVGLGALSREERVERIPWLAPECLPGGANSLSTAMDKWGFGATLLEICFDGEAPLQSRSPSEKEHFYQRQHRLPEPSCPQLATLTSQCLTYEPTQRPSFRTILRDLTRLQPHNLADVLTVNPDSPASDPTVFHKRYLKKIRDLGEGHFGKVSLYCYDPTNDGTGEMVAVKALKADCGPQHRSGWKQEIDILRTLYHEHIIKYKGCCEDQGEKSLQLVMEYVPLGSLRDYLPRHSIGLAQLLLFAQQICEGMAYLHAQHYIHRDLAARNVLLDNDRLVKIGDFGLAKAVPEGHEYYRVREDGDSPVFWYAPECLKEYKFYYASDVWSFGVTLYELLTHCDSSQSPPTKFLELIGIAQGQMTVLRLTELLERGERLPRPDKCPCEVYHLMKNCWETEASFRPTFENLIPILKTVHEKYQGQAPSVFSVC
JAK3, sequence (P52333 whole entry): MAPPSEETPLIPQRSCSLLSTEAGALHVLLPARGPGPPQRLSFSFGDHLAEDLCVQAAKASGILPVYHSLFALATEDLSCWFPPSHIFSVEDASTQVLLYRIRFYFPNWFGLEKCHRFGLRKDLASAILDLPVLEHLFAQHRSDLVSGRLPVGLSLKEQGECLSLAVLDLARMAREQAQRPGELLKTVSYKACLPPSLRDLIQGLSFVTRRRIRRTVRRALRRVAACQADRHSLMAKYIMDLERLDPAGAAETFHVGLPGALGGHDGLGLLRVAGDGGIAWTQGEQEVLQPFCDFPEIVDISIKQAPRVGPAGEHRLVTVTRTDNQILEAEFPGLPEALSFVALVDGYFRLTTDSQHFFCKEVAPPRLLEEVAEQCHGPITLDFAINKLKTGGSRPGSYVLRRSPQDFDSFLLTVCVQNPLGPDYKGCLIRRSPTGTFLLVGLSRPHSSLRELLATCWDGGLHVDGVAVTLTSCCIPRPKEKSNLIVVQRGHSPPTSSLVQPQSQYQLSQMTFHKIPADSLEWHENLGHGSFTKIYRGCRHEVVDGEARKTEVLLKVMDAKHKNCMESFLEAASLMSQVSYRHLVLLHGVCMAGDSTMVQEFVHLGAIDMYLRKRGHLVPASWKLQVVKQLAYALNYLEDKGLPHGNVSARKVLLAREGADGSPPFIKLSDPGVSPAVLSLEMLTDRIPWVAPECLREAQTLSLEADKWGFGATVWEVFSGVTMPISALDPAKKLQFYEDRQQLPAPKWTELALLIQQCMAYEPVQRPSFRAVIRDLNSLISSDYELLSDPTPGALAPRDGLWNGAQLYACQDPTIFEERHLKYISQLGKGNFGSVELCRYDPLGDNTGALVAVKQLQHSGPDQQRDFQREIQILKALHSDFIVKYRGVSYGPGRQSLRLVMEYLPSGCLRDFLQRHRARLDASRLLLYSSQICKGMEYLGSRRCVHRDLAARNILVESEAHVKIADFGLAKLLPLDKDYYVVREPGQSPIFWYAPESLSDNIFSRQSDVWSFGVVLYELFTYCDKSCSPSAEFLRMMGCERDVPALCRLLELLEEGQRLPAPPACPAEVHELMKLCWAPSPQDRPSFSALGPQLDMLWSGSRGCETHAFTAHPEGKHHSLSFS
JAK2, sequence (O60674 whole entry): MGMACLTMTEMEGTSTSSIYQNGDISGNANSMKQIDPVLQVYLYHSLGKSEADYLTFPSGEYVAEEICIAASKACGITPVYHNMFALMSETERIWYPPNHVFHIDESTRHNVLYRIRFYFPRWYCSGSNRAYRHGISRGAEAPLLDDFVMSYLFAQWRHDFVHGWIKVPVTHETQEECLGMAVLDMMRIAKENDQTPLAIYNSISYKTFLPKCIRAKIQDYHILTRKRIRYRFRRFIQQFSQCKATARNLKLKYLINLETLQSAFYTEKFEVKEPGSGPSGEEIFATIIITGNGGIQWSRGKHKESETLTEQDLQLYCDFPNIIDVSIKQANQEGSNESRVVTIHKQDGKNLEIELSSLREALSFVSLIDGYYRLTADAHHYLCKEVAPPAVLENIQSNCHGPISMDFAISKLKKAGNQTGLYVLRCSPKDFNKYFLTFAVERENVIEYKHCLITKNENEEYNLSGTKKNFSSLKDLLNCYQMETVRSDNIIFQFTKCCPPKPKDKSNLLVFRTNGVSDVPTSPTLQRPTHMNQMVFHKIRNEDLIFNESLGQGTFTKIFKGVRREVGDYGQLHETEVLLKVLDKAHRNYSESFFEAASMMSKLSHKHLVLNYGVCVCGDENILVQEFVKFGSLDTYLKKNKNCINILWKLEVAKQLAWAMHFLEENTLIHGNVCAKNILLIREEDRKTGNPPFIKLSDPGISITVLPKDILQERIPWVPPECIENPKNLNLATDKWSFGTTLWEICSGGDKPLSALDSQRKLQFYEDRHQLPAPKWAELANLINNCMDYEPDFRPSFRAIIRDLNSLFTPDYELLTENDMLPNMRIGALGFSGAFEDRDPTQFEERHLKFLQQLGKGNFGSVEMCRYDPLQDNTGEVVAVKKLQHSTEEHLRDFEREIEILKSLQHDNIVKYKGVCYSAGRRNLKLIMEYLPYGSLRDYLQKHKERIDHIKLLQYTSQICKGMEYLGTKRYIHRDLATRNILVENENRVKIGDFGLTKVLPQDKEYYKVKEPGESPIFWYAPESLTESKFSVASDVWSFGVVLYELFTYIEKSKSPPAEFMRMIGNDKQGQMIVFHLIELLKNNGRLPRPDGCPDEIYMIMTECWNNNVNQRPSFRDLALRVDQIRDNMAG
JAK1, sequence (P23458 whole entry): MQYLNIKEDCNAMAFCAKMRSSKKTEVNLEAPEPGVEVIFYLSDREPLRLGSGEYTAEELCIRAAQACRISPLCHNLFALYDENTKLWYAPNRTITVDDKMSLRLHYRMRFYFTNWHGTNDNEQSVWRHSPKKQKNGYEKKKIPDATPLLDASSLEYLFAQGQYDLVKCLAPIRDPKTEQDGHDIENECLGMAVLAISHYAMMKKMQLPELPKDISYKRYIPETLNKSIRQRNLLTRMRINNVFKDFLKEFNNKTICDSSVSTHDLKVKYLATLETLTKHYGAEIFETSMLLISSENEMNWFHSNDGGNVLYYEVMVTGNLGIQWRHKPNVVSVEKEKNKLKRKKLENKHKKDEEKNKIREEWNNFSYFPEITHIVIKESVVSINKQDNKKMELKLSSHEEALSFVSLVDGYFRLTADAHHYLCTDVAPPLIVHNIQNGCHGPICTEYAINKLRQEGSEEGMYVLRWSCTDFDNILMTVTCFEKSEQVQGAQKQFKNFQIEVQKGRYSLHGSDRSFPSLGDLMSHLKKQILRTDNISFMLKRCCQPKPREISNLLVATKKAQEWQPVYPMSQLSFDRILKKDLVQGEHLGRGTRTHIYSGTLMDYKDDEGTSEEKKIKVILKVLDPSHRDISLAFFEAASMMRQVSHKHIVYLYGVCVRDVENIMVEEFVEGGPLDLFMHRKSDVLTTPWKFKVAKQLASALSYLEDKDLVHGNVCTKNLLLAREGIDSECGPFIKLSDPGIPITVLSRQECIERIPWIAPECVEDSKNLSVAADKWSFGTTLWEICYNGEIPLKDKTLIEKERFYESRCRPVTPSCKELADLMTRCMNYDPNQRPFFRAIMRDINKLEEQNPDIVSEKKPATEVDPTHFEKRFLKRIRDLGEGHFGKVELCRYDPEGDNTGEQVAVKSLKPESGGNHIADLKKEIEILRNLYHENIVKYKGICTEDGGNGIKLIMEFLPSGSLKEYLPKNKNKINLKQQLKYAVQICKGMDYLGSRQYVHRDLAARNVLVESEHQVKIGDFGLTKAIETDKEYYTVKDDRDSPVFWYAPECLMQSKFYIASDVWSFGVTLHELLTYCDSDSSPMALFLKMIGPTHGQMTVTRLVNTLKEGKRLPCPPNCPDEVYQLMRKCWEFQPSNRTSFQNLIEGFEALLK

SMILES | weight gain [1] | absorption at the portal vein (Fa %) [2] | Ki (Tyk2) [nM] | Ki (JAK1) [nM] | IC50 [3] [nM] | JAK 2 (pKi) (JAK2) | Ki (JAK3; [6]) [nM] | decrease in DAI score as compared with vehicle treated animals [4] | bioavailability [2] [%] | also measured
COc1cc(Nc2cc(CO)[nH]n2)nc(N(C)[C@@H]2C[C@H]3CCC[C@@H](C2)N3S(=O)(=O)N2CC(C#N)C2)n1 [Form II, 1-(((1R,3s,5S)-3-((4-((5-(hydroxymethyl)-1H-pyrazol-3-yl)amino)-6-methoxypyrimidin-2-yl)(methyl)amino)-9-azabicyclo[3.3.1]nonan-9-yl)sulfonyl)azetidine-3-carbonitrile] | about 1.2% | – | – | – | – | – | – | – | – | hygroscopicity ([1]; 5% to 90% relative humidity): slightly hygroscopic
COc1cc(Nc2cc(CO)[nH]n2)nc(N(C)[C@@H]2C[C@H]3CCC[C@@H](C2)N3S(C)(=O)=O)n1 [Example 3, (3-((6-methoxy-2-(methyl((1R,3s,5S)-9-(methylsulfonyl)-9-azabicyclo[3.3.1]nonan-3-yl)amino)pyrimidin-4-yl)amino)-1H-pyrazol-5-yl)methanol] | – | greater than 40% | 0.1 to 1 | 0.1 to 1 | 31.6 to 200 | A (A represents a pKi value≥10 (Ki≤0.1 nM)) | 1 to 10 | – | – | –
COc1cc(Nc2cc(CO)[nH]n2)nc(N(C)[C@@H]2C[C@H]3CC[C@@H](C2)N3S(=O)(=O)N2CC(C#N)C2)n1 [Example 1, 1-(((1R,3s,5S)-3-((4-((5-(Hydroxymethyl)-1H-pyrazol-3-yl)amino)-6-methoxypyrimidin-2-yl)(methyl)amino)-8-azabicyclo[3.2.1]octan-8-yl)sulfonyl)azetidine-3-carbonitrile] | – | less than 25% | 0.1 to 1 | – | 31.6 to 200 | A (A represents a pKi value≥10 (Ki≤0.1 nM)) | – | did not exhibit a statistically significant decrease | < 5 | JAK 1 (pKi) (JAK1): A (A represents a pKi value≥10 (Ki≤0.1 nM)); Ki (JAK3): 1 to 10 nM
C[C@@H]1CCN(C(=O)CC#N)C[C@@H]1N(C)c1ncnc2[nH]ccc12 [tofacitinib, reference compound] | – | – | – | – | – | – | – | – | – | treatment effect on B and T cell populations [5]: No treatment effect
COc1cc(Nc2cc(CO)[nH]n2)nc(N(C)[C@@H]2C[C@H]3CCC[C@@H](C2)N3S(=O)(=O)N2CC(C#N)C2)n1 [Form I, 1-(((1R,3s,5S)-3-((4-((5-(hydroxymethyl)-1H-pyrazol-3-yl)amino)-6-methoxypyrimidin-2-yl)(methyl)amino)-9-azabicyclo[3.3.1]nonan-9-yl)sulfonyl)azetidine-3-carbonitrile] | less than 0.4% | – | – | – | – | – | – | – | – | –
COCCS(=O)(=O)N1[C@@H]2CCC[C@H]1C[C@H](N(C)c1nc(Nc3cc(CO)[nH]n3)cc(OC)n1)C2 [Example 4, (3-((6-methoxy-2-(((1R,3s,5S)-9-((2-methoxyethyl)sulfonyl)-9-azabicyclo[3.3.1]nonan-3-yl)(methyl)amino)pyrimidin-4-yl)amino)-1H-pyrazol-5-yl)methanol] | – | greater than 40% | 0.1 to 1 | 0.1 to 1 | 31.6 to 200 | A (A represents a pKi value≥10 (Ki≤0.1 nM)) | 1 to 10 | statistically significant decrease | < 5 | –
